# Experimental data published in patent US6589963B2, “Heterocyclic compounds and salts thereof and medicinal use of the same” (Kyoto Pharmaceutical Industries, Ltd., priority 1999, dated 2003).
# Key:
# [1] = tested on: male KK-A^y mice; assay: Hypoglycemic action (method A); format: in vivo, mouse; details: 4 consecutive days, non-fasting, about 24 hours after final administration, vs control group
# Protocol: (§1) The glucose level in the plasma was measured using a commercially available assay kit (glucose CII-test WAKO, Wako Pure Chemical Industries, Ltd.). The mice were grouped (5 mice per group) into a control group and an administration group, such that the mean and the standard deviation of the glucose level in the plasma of each group were nearly the same. Each test compound was suspended or dissolved in 5% gum arabic solution and administered orally to the administration group for 4 consecutive days from the next day. The 5% gum arabic solution was orally administered to the control group. Blood was drawn from the tail vein under a non-fasting state about 24 hours after the final administration and the glucose level in the plasma was measured. The decrease in the plasma glucose level was calculated from the following formula.
# Decrease (%) in plasma glucose level=[(mean plasma glucose level of control group−mean plasma glucose level of test compound administration group)/mean plasma glucose level of control group]×100
# [2] = tested on: male KK-A^y mice; assay: Hypotriglyceridemic action; format: in vivo, mouse; details: 4 consecutive days, non-fasting, about 24 hours after final administration, vs control group
# Protocol: as §1, with “triglyceride” for “glucose”, “(triglyceride G-test” for “(glucose CII-test”
# Decrease (%) in plasma triglyceride level=[(mean plasma triglyceride level of control group−mean plasma triglyceride level of test compound administration group)/mean plasma triglyceride level of control group]×100
compound,measurement,setting,value
"7-[2-(5-Methyl-2-phenyloxazol-4-yl)ethoxy]-2-(4-pentenoyl)-1,2,3,4-tetrahydroisoquinoline-(3S)-carboxylic acid [Example 44]",Decrease (%) in plasma glucose level,[1]; dose 30 mg/kg orally,48.0%
same,Decrease (%) in plasma triglyceride level,[2]; dose 30 mg/kg orally,19.1%
"Cc1oc(-c2ccccc2)nc1CCOc1ccc2c(c1)CC(C(=O)O)N(Cc1ccccc1)C2 (racemic) [Example 72, 2-Benzyl-6-[2-(5-methyl-2-phenyloxazol-4-yl)ethoxy]-1,2,3,4-tetrahydroisoquinoline-(3RS)-carboxylic acid]",Decrease (%) in plasma glucose level,[1]; dose 30 mg/kg orally,15.9%
same,Decrease (%) in plasma triglyceride level,[2]; dose 30 mg/kg orally,24.0%
"CC(=O)N1Cc2cc(OCCc3nc(-c4ccccc4)oc3C)ccc2C[C@H]1C(=O)O [Example 3, 2-Acetyl-7-[2-(5-methyl-2-phenyloxazol-4-yl)ethoxy]-1,2,3,4-tetrahydroisoquinoline-(3S)-carboxylic acid]",Decrease (%) in plasma glucose level,[1]; dose 30 mg/kg orally,11.8%
"Cc1oc(-c2ccccc2)nc1CCOc1ccc2c(c1)CN(C)[C@H](C(=O)O)C2 [Example 4, 2-Methyl-7-[2-(5-methyl-2-phenyloxazol-4-yl)ethoxy]-1,2,3,4-tetrahydroisoquinoline-(3S)-carboxylic acid]",Decrease (%) in plasma triglyceride level,[2]; dose 10 mg/kg orally,14.3%
CCCCCCN1Cc2cc(OCCc3nc(-c4ccccc4)oc3C)ccc2C[C@H]1C(=O)O [Example 6],Decrease (%) in plasma glucose level,[1]; dose 10 mg/kg orally,10.7%
same,Decrease (%) in plasma glucose level,[1]; dose 30 mg/kg orally,12.2%
"Cc1oc(-c2ccccc2)nc1CCOc1ccc2c(c1)CN(CC(C)C)[C@H](C(=O)O)C2 [Example 7, 2-Isobutyl-7-[2-(5-methyl-2-phenyloxazol-4-yl)ethoxy]-1,2,3,4-tetrahydroisoquinoline-(3S)-carboxylic acid]",Decrease (%) in plasma glucose level,[1]; dose 10 mg/kg orally,11.4%
same,Decrease (%) in plasma glucose level,[1]; dose 30 mg/kg orally,17.4%
"Cc1oc(-c2ccccc2)nc1CCOc1ccc2c(c1)CN(CCCc1ccccc1)[C@H](C(=O)O)C2 [Example 9, 7-[2-(5-Methyl-2-phenyloxazol-4-yl)ethoxy]-2-(3-phenylpropyl)-1,2,3,4-tetrahydroisoquinoline-(3S)-carboxylic acid]",Decrease (%) in plasma glucose level,[1]; dose 30 mg/kg orally,20.3%
"CN(CCOc1ccc2c(c1)CN(Cc1ccccc1)[C@H](C(=O)[O-])C2)c1ccccn1.[Na+] [Example 11, Sodium 2-benzyl-7-[2-(N-methyl-N-(pyridin-2-yl)amino)ethoxy]-1,2,3,4-tetrahydroisoquinoline-(3S)-carboxylate]",Decrease (%) in plasma triglyceride level,[2]; dose 10 mg/kg orally,11.2%
"CCc1ccc(CCOc2ccc3c(c2)CN(Cc2ccccc2)[C@H](C(=O)[O-])C3)nc1.[Na+] [Example 12, Sodium 2-benzyl-7-[2-(5-ethyl-pyridin-2-yl)ethoxy]1,2,3,4-tetrahydroisoquinoline-(3S)-carboxylate]",Decrease (%) in plasma glucose level,[1]; dose 10 mg/kg orally,12.0%
same,Decrease (%) in plasma triglyceride level,[2]; dose 10 mg/kg orally,22.9%
"Cc1ccc(CN2Cc3cc(OCCc4nc(-c5ccccc5)oc4C)ccc3C[C@H]2C(=O)O)cc1 [Example 18, 2-(4-Methylbenzyl)-7-[2-(5-methyl-2-phenyloxazol-4-yl)ethoxy]-1,2,3,4-tetrahydroisoquinoline-(3S)-carboxylic acid]",Decrease (%) in plasma glucose level,[1]; dose 30 mg/kg orally,39.7%
same,Decrease (%) in plasma triglyceride level,[2]; dose 30 mg/kg orally,45.5%
"Cc1oc(C(C)C)nc1CCOc1ccc2c(c1)CN(Cc1ccccc1)[C@H](C(=O)O)C2 [Example 34, 2-Benzyl-7-[2-(5-methyl-2-isopropyloxazol-4-yl)ethoxy]-1,2,3,4-tetrahydroisoquinoline-(3S)-carboxylic acid]",Decrease (%) in plasma glucose level,[1]; dose 30 mg/kg orally,23.5%
same,Decrease (%) in plasma triglyceride level,[2]; dose 30 mg/kg orally,17.3%
"CCCCN1Cc2cc(OCCc3nc(-c4ccccc4)oc3C)ccc2C[C@H]1C(=O)O [Example 35, 2-Butyl-7-[2-(5-methyl-2-phenyloxazol-4-yl)ethoxy]-1,2,3,4-tetrahydroisoquinoline-(3S)-carboxylic acid]",Decrease (%) in plasma glucose level,[1]; dose 30 mg/kg orally,22.1%
same,Decrease (%) in plasma triglyceride level,[2]; dose 30 mg/kg orally,12.4%
"CC(C)=Cc1nc(CCOc2ccc3c(c2)CN(Cc2ccccc2)[C@H](C(=O)O)C3)c(C)o1 [Example 36, 2-Benzyl-7-{2-[5-methyl-2-(2-methylpropenyl)oxazol-4-yl]ethoxy}-1,2,3,4-tetrahydroisoquinoline-(3S)-carboxylic acid]",Decrease (%) in plasma glucose level,[1]; dose 30 mg/kg orally,28.4%
same,Decrease (%) in plasma triglyceride level,[2]; dose 30 mg/kg orally,13.7%
"C=CCN1Cc2cc(OCCc3nc(-c4ccccc4)oc3C)ccc2C[C@H]1C(=O)O [Example 38, 2-Allyl-7-[2-(5-methyl-2-phenyloxazol-4-yl)ethoxy]-1,2,3,4-tetrahydroisoquinoline-(3S)-carboxylic acid]",Decrease (%) in plasma glucose level,[1]; dose 30 mg/kg orally,28.0%
same,Decrease (%) in plasma triglyceride level,[2]; dose 30 mg/kg orally,30.0%
"O=C(O)[C@@H]1Cc2ccc(OCCC3CNc4ccccc43)cc2CN1Cc1ccccc1 (stereo partly drawn) [Example 41, 2-Benzyl-7-[(indolin-3-yl)ethoxy]-1,2,3,4-tetrahydroisoquinoline-(3S)-carboxylic acid]",Decrease (%) in plasma glucose level,[1]; dose 30 mg/kg orally,11.1%
"CCCCC(=O)N1Cc2cc(OCCc3nc(-c4ccccc4)oc3C)ccc2C[C@H]1C(=O)O [Example 43, 7-[2-(5-Methyl-2-phenyloxazol-4-yl)ethoxy]-2-pentanoyl-1,2,3,4-tetrahydroisoquinoline-(3S)-carboxylic acid]",Decrease (%) in plasma glucose level,[1]; dose 30 mg/kg orally,27.5%
same,Decrease (%) in plasma triglyceride level,[2]; dose 30 mg/kg orally,20.9%
"CC(C)=CC(=O)N1Cc2cc(OCCc3nc(-c4ccccc4)oc3C)ccc2C[C@H]1C(=O)O [Example 45, 2-(3-Methyl-2-butenoyl)-7-[2-(5-methyl-2-phenyloxazol-4-yl)ethoxy]-1,2,3,4-tetrahydroisoquinoline-(3S)-carboxylic acid]",Decrease (%) in plasma glucose level,[1]; dose 30 mg/kg orally,12.6%
"Cc1oc(-c2ccccc2)nc1CCOc1ccc2c(c1)CN(C(=O)CC(C)(C)C)[C@H](C(=O)O)C2 [Example 46, 2-(3,3-Dimethylbutyryl)-7-[2-(5-methyl-2-phenyloxazol-4-yl)ethoxy]-1,2,3,4-tetrahydroisoquinoline-(3S)-carboxylic acid]",Decrease (%) in plasma glucose level,[1]; dose 30 mg/kg orally,28.6%
"Cc1oc(-c2ccccc2)nc1CCOc1ccc2c(c1)CN(Cc1ccccn1)[C@H](C(=O)[O-])C2.[Na+] [Example 48, Sodium 7-[2-(5-methyl-2-phenyloxazol-4-yl)ethoxy]-2-(pyridin-2-ylmethyl)-1,2,3,4-tetrahydroisoquinoline-(3S)-carboxylate]",Decrease (%) in plasma glucose level,[1]; dose 30 mg/kg orally,16.1%
"CC(C)(C)c1nc2cc(COc3ccc4c(c3)CN(Cc3ccccc3)[C@H](C(=O)O)C4)ccc2o1 [Example 53, 2-Benzyl-7-(2-tert-butylbenzoxazol-5-yl)methoxy-1,2,3,4-tetrahydroisoquinoline-(3S)-carboxylic acid]",Decrease (%) in plasma glucose level,[1]; dose 30 mg/kg orally,13.6%
"CC(C)(C)CN1Cc2cc(OCc3ccc4nc(C(C)(C)C)oc4c3)ccc2C[C@H]1C(=O)O [Example 54, 7-(2-tert-Butylbenzoxazol-6-yl)methoxy-2-(2,2-dimethylpropyl)-1,2,3,4-tetrahydroisoquinoline-(3S)-carboxylic acid]",Decrease (%) in plasma glucose level,[1]; dose 30 mg/kg orally,10.8%
"CC(C)c1nc2cc(COc3ccc4c(c3)CN(Cc3ccccc3)[C@H](C(=O)O)C4)ccc2o1 [Example 55, 2-Benzyl-7-(2-isopropylbenzoxazol-5-yl)methoxy-1,2,3,4-tetrahydroisoquinoline-(3S)-carboxylic acid]",Decrease (%) in plasma glucose level,[1]; dose 30 mg/kg orally,13.9%
"Cc1oc(-c2ccccc2)nc1CCOc1ccc2c(c1)CN(Cc1ccncc1)[C@H](C(=O)[O-])C2.[Na+] [Example 56, Sodium 7-[2-(5-methyl-2-phenyloxazol-4-yl)ethoxy]-2-(pyridin-4-ylmethyl)-1,2,3,4-tetrahydroisoquinoline-(3S)-carboxylate]",Decrease (%) in plasma triglyceride level,[2]; dose 30 mg/kg orally,14.0%
"Cc1oc(C2CC2)nc1CCOc1ccc2c(c1)CN(Cc1ccccc1)[C@H](C(=O)O)C2 [Example 59, 2-Benzyl-7-[2-(2-cyclopropyl-5-methyloxazol-4-yl)ethoxy]-1,2,3,4-tetrahydroisoquinoline-(3S)-carboxylic acid]",Decrease (%) in plasma triglyceride level,[2]; dose 30 mg/kg orally,13.7%
"O=C(O)[C@@H]1Cc2ccc(OCCc3cc4ccccc4o3)cc2CN1Cc1ccccc1 [Example 67, 7-[2-(Benzofran-2-yl)ethoxy]-2-benzyl-1,2,3,4-tetrahydroisoquinoline-(3S)-carboxylic acid]",Decrease (%) in plasma glucose level,[1]; dose 30 mg/kg orally,10.6%
"COC(=O)CCC(=O)N1Cc2cc(OCCc3nc(-c4ccccc4)oc3C)ccc2C[C@H]1C(=O)O [Example 70, 2-[3-(Methoxycarbonyl)propionyl]-7-[2-(5-methyl-2-phenyloxazol-4-yl)ethoxy]-1,2,3,4-tetrahydroisoquinoline-(3S)-carboxylic acid]",Decrease (%) in plasma glucose level,[1]; dose 30 mg/kg orally,15.2%
"CCOC(=O)CCCN1Cc2cc(OCCc3nc(-c4ccccc4)oc3C)ccc2C[C@H]1C(=O)O [Example 71, 2-[3-(Ethoxycarbonyl)propyl]-7-[2-(5-methyl-2-phenyloxazol-4-yl)ethoxy]-1,2,3,4-tetrahydroisoquinoline-(3S)-carboxylic acid]",Decrease (%) in plasma glucose level,[1]; dose 30 mg/kg orally,10.5%
